The source of these data is US20250388602A1 (Genase Therapeutics B.V., priority 2022, published 2025).

Where only a bound is given, the exact number is not on record here.

Data set [1] in a line: in vitro.
Data set [2] deals with Human CYPs. Description: CYP inhibition panel in pooled human liver microsomes, overall statement. It is filed as in vitro ADME. The settings on record: compared to C-analogue. The protocol:
(§1) CYP inhibition: Co-incubation of compounds with P450 enzyme-selective substrates was performed using pooled human liver microsomes (Cat. No. H0610, Xenotech), to determine their potential to cause drug-drug interactions. The assay was performed in duplicate. The formation of acetaminophen, 7′-hydoxycoumarin, hydrobupropion, N-desethylamodiaquine, 4′-hydroxydiclofenac, 4′-hydroxymephenytoin, 1′-hydroxybufuralol, 6″-hydroxychlorzoxazone were quantified as markers for CYP1A2, CYP2A6, […], CYP2C8, CYP2C9, CYP2C19, […], CYP2E1, respectively. CYP3A4 inhibition was measured using 2 substrates, measuring the formation of […] (3A4-T), and 1′-hydroxymidazolam (3A4-M). The incubation was carried out in 96 deep well plates each well containing: 179 μL of the master solution (0.2 mg/mL microsomes plus CYP substrate (see below for final substrate concentration and incubation time for the different CYP assays)) in 100 mM phosphate buffer and 1 μL of the compound working solution or vehicle. The final concentrations of the compounds in the assay was 30 μM when using a single dose or 0.1, 0.3, 1, 3, 10 and 30 μM for a dose response.
The incubation plate was placed into a water bath and pre-warmed at 37° C. for 5 minutes before the reactions were started by the addition of 20 μL of 10 mM NADPH solution and incubated at 37° C. for the time listed above. […]
In general terms: Liver microsomes are a subcellular fraction often used to study metabolism.

In data set [3] the target is CYP2C8 (Homo sapiens (Human), UniProt P10632). Description: biochemical. The format is in vitro ADME. How it is done: as §1
CYP2C8, sequence (P10632 whole entry): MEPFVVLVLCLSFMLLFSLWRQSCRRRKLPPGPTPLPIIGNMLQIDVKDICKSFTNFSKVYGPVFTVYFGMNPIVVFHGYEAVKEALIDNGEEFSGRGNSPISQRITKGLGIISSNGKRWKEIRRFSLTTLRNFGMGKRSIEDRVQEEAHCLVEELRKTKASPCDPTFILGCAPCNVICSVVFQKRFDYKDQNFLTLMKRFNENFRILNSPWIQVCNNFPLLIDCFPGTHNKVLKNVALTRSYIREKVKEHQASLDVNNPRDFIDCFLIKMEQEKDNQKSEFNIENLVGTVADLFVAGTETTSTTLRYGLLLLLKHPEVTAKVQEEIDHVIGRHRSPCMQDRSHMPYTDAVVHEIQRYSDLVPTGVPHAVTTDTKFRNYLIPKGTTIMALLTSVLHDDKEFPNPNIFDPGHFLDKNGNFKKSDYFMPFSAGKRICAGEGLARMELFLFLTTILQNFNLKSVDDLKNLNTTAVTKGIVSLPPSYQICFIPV
(§2) The incubation plate was placed into a water bath and pre-warmed at 37° C. for 5 minutes before the reactions were started by the addition of 20 μL of 10 mM NADPH solution and incubated at 37° C. for the time listed above. The reaction was stopped by addition of 1.5 volumes (300 μL) of cold ACN containing 3% formic acid and 200 nM tolbutamide, 200 nM aprozolam and 200 nM labalol. The plate was centrifuged at 3,220 g for 50 minutes and then 200 μL of the supernatant was transferred to the analysis plate for LC/MS/MS analysis. The respective metabolite formation from each probe substrate was compared with that observed for the solvent control incubations.

For data set [4], the target named is CYP3A4 (Homo sapiens (Human), UniProt P08684). Description: biochemical. It is filed as in vitro ADME. How it is done: as §1, §2
CYP3A4, sequence (P08684 whole entry): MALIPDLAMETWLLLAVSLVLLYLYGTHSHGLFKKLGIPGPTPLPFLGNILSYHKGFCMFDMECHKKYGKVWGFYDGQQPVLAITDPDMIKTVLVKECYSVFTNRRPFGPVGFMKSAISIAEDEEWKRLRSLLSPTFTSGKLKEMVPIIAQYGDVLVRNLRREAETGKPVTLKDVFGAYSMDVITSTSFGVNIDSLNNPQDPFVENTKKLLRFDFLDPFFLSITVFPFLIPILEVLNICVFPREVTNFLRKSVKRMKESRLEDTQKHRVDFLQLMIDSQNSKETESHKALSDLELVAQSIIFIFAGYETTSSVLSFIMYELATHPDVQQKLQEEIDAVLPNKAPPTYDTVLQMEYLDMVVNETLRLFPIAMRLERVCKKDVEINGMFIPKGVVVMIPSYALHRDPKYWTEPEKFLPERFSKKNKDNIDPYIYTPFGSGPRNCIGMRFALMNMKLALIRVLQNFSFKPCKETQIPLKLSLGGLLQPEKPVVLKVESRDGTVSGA
In data set [5] the target is CYP2C9 (Homo sapiens (Human), UniProt P11712). Description: biochemical. It is filed as in vitro ADME. How it is done:
as §1, §2

Data set [6] concerns the target CYP2C19 (Homo sapiens (Human), UniProt P33261). Description: biochemical. The format is in vitro ADME. The protocol: as §1, §2
The target of data set [7] is CYP2B6 (Homo sapiens (Human), UniProt P20813). Description: biochemical. The format is in vitro ADME. The protocol: as §1, §2
CYP2B6, sequence (P20813 whole entry): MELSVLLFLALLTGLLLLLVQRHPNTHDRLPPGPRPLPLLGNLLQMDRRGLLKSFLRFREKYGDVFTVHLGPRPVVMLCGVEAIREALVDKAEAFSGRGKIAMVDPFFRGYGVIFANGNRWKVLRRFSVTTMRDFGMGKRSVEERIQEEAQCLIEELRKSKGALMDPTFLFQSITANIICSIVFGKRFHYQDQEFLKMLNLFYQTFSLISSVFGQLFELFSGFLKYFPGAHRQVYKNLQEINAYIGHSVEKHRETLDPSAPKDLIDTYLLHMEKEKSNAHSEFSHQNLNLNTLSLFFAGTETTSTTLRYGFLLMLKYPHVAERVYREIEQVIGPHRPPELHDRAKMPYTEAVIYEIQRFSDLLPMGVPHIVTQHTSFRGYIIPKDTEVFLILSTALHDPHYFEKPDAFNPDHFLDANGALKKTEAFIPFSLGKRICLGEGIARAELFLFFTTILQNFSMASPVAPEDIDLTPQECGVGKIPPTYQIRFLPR
The target in data set [8] is CYP2D6 (Homo sapiens (Human), UniProt P10635). The data set is described as follows: biochemical. It is filed as in vitro ADME. How it is done:
as §1, §2

The target of data set [9] is CYP2A6 (Homo sapiens (Human), UniProt P11509). The data set is described as follows: biochemical. It is filed as in vitro ADME. The protocol: as §1, §2
CYP2A6, sequence (P11509 whole entry): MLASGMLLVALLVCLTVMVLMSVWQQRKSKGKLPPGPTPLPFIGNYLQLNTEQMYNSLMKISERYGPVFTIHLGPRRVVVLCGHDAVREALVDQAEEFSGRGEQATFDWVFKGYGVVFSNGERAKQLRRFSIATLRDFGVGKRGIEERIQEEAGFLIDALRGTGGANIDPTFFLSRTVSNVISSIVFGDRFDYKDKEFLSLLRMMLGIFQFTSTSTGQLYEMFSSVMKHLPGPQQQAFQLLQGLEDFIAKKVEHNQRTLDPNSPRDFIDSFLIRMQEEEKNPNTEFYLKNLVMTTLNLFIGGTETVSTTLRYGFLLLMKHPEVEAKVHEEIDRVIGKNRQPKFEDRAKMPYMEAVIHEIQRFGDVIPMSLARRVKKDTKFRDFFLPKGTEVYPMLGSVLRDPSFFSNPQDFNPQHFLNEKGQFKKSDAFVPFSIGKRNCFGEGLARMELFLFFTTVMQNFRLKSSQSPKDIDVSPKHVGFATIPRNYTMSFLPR
In data set [10] the target is recombinant human DHODH (Homo sapiens (Human), UniProt Q02127). Description: DHODH enzyme assay (Assay A), DCIP absorbance. It is filed as biochemical. The settings on record: bins ≥10 nM-<100 nM and <10 nM; read-out: IC50 DHODH inhibition activity.
recombinant human DHODH, sequence (Q02127 whole entry): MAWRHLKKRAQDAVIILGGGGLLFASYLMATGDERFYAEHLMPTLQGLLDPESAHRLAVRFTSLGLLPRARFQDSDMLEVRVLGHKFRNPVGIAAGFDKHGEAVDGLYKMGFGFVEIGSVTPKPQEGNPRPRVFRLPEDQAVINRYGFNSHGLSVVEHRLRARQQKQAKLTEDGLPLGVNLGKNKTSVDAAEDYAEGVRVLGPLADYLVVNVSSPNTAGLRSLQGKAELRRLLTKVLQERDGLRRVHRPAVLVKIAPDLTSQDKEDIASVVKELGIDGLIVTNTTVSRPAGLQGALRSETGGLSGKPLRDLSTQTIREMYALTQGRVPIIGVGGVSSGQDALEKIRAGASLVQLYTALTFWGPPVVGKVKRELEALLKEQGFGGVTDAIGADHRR

CYP2C9, sequence (P11712 whole entry): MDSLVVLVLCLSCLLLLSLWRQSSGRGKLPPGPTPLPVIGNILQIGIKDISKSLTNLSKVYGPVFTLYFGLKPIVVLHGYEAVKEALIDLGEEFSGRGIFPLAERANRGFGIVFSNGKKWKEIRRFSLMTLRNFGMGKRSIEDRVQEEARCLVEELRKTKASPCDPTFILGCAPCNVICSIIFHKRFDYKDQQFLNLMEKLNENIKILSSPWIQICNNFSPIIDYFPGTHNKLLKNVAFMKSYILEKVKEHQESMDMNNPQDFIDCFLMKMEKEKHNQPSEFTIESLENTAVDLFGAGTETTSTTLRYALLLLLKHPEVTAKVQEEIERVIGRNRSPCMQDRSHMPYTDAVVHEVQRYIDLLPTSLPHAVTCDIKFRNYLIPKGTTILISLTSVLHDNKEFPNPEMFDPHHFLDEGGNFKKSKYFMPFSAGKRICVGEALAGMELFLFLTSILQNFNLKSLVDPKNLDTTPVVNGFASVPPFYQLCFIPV
CYP2D6, sequence (P10635 whole entry): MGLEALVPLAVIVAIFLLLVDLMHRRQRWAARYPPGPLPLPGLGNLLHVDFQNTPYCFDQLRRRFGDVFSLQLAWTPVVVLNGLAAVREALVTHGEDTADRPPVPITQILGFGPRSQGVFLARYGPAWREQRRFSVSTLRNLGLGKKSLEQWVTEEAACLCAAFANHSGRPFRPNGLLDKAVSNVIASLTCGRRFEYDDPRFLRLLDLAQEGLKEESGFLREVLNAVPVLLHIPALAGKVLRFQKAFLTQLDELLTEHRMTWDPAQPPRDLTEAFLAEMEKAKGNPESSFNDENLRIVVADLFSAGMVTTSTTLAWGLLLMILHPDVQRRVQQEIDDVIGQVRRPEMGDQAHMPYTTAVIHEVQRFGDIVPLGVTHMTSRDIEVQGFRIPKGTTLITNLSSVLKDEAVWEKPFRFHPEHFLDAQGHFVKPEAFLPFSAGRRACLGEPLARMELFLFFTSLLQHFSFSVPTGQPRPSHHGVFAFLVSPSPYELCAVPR
CYP2C19, sequence (P33261 whole entry): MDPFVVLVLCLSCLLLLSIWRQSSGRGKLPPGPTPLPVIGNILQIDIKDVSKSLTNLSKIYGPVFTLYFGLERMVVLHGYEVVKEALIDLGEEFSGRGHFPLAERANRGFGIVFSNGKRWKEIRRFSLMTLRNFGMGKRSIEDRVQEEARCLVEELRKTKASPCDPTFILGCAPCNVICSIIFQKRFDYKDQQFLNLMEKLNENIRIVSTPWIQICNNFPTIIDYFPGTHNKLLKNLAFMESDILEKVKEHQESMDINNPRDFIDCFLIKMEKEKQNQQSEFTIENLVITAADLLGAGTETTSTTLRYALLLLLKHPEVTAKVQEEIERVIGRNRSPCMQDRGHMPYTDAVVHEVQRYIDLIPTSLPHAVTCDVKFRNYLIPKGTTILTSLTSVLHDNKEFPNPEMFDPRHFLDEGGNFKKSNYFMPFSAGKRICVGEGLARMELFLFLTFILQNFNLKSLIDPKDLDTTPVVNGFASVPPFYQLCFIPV

Take `COc1ccc(F)c(-n2ncc3c2COC[C@H]3NC(=O)c2ncn3c2CCCC3)c1Cl` (single isomer, unassigned) [Ex-9]: the hHEPs % remaining in [1] (% remaining at 120 min, 1 μM) came to 87%. Moreover, the half-life (as a rule, the time in which the quantity being followed falls by half) at 1 μM in data set [1] (human, hepatocytes) was over 10 h. For the same compound, the “inhibition of human CYPs” value in data set [2] was “No Inhibition”. Further, the IC50 (in general, the concentration that gives 50% inhibition) was over 30 µM in data set [3]; over 30 µM in data set [4] (IC50 CYP3A4-M, substrate Midozolam); over 30 µM in [4] (IC50 CYP3A4-T, substrate Testosterone); over 30 µM in data set [5]; over 30 µM in data set [6]; over 30 µM in [7]. In addition, the figures for the IC50 in data set [8], in data set [9] and in data set [10] were over 30 µM, over 30 µM and under 0.01 µM, respectively.
